The record followed here is US12510533B2, “Methods for treating multiple myeloma and the use of companion biomarkers for 4-(4-(4-(((2-(2,6-dioxopiperidin-3-yl)-1-oxoisoindolin-4-yl)oxy)methyl)benzyl)piperazin-1-yl)-3-fluorobenzonitrile” (Celgene Corporation, priority 2018, dated 2025).

SMILES strings stand for the structures. Where two headings read alike, the source gives them in different places.

The term inhibition denotes the relative decrease from the control value, in per cent.

One experiment has as its target T1, Aiolos (Homo sapiens, UniProt Q96SW2+Q9UKT9).
T1 construct: expressed in transfected cells; host or cells: DF15 multiple myeloma cells
Nature of the experiment: Aiolos degradation, ePL luminescence assay in DF15 cells expressing ePL-tagged Aiolos. It is filed as cell-based. As to conditions: for DC50: read-out: Degradation of Aiolos IC50, DF15 cells. The method, then:
FIG. 1 illustrates that Compound 2 and Compound 3 degraded Aiolos protein in a time and concentration dependent manner. DF15 cells expressing Enhanced ProLabel (ePL)-tagged Aiolos were incubated with Compound 2 (triangle) or Compound 3 (square) for 45 minutes, 90 minutes, or 3 hours at the indicated concentrations. Cell extracts were then generated and the amount of Aiolos-ePL protein was determined by ePL luminescence assay.
The relative effectiveness of Compound 2 and Compound 3 to promote the destruction of Aiolos protein by the CRL4^CRBN E3 ubiquitin ligase was investigated in DF15 myeloma cells at different time points (45 minutes, 90 minutes, and 3 hours). DF15 cells expressing Enhanced ProLabel (ePL)-tagged Aiolos were incubated with Compound 2 or Compound 3 for 45 minutes, 90 minutes, or 3 hours. Cell extracts were then generated and the amount of Aiolos ePL protein was determined by ePL luminescence assay. Values shown in Table 1 correspond to data presented in FIG. 1 for Aiolos content vs. concentration.

The subject of a further experiment is OPM2 cells. Nature of the experiment: cells. In kind it is cell-based, human. The settings on record: Homo sapiens, read-out: Inhibition of Proliferation of OPM2 Cells IC50. The method, then: The effect of the stabilizing mutations on cell proliferation was also measured.

T1 sequence (Q9UKT9 whole entry): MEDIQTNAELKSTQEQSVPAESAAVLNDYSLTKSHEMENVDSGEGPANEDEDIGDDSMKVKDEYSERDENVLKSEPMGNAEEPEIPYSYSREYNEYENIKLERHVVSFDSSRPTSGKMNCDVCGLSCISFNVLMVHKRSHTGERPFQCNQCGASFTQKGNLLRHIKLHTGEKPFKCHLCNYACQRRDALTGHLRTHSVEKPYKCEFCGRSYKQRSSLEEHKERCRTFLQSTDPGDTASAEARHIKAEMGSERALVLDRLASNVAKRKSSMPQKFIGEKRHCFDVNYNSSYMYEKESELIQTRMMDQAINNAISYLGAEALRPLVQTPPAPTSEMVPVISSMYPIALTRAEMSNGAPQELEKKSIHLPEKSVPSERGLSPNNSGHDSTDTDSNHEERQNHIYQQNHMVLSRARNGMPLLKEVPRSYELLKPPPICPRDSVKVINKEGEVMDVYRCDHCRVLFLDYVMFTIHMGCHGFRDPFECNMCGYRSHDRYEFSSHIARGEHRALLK
T1 sequence (Q96SW2 whole entry): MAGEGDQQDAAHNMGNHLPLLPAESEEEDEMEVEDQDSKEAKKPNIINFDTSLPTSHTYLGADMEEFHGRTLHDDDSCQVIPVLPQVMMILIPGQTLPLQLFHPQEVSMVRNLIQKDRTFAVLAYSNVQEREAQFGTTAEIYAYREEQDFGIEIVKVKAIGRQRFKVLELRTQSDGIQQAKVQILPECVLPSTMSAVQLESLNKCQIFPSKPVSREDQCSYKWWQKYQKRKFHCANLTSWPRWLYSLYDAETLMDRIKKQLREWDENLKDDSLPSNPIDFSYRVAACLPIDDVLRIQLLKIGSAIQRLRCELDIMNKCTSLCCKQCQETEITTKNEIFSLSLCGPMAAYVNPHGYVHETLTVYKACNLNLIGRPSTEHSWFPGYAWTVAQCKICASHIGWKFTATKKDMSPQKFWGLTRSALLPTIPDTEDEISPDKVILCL
T1 sequence (Q16531 2-1140, further chain): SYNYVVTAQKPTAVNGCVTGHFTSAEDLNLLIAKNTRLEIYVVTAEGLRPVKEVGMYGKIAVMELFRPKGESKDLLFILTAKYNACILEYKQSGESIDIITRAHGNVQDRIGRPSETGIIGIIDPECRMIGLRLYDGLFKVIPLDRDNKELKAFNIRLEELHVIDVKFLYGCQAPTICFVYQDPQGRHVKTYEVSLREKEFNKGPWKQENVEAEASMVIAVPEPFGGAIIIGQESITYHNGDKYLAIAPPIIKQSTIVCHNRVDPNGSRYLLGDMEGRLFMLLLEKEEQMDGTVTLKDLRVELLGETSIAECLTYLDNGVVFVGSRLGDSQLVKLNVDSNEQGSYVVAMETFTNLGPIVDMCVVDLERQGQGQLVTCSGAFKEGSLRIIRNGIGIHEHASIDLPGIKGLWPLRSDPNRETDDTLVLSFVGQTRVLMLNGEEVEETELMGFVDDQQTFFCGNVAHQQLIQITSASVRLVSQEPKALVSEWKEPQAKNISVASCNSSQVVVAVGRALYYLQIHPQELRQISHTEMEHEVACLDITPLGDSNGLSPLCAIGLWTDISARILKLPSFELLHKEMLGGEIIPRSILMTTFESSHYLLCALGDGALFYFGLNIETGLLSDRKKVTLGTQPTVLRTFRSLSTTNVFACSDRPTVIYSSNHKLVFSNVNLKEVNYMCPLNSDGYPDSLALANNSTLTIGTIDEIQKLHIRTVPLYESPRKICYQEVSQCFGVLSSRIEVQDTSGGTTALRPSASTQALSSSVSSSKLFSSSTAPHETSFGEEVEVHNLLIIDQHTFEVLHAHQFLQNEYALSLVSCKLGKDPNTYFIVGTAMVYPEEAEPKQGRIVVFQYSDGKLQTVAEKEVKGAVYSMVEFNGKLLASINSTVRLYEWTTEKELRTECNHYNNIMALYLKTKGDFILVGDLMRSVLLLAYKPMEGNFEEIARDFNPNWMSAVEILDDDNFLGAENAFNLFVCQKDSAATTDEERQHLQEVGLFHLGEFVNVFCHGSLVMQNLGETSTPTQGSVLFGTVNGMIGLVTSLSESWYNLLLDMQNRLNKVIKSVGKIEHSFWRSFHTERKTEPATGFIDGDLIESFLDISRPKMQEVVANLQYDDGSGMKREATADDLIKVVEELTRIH

Consider `N#Cc1ccc(N2CCN(Cc3ccc(COc4cccc5c4CN([C@@H]4CCC(=O)NC4=O)C5=O)cc3)CC2)c(F)c1` [Compound 3, (R)-4-(4-(4-(((2-(2,6-dioxopiperidin-3-yl)-1-oxoisoindolin-4-yl)oxy)methyl)benzyl)piperazin-1-yl)-3-fluorobenzonitrile], for which the “manner of Aiolos degradation” value on Aiolos (45 minutes, 90 minutes, 3 hours) was “time-dependent and concentration-dependent”. In addition, the inhibition at 0.001 µM on Aiolos (DF15, read-out: inhibition at 0.001 μM) is 13%. Also, the DC50 at Aiolos (45 minutes incubation) was over 100 nM; at Aiolos (90 minutes incubation), 5.9 nM; on Aiolos (3 hours incubation), 0.45 nM.
Consider `Nc1cccc2c1C(=O)N(C1CCC(=O)NC1=O)C2=O` (stereo not drawn) [Pomalidomide, pomalidomide, reference compound], for which the IC50 in the experiment with OPM2 cells (OPM-2, Parental) is 64 nM; with OPM2 cells (OPM-2, overexpressing Aiolos Q147H), 56 nM; in the experiment on OPM2 cells (OPM-2, overexpressing Aiolos) it was 89 nM; in the experiment with OPM2 cells (OPM-2, overexpressing Ikaros-G151A), over 100 nM; in the experiment with OPM2 cells (OPM-2, overexpressing Ikaros-Q146H) it was over 100 nM; with OPM2 cells (OPM-2, overexpressing Ikaros) it was 91 nM. In addition, the IC50 with OPM2 cells (OPM-2, overexpressing ZFP91-Q400H) came out at 73 nM.
